Patent EP0981526B1, “NOVEL ANTIDIABETIC COMPOUNDS HAVING HYPOLIPIDAEMIC, ANTIHYPERTENSIVE PROPERTIES, PROCESS FOR THEIR PREPARATION AND PHARMACEUTICAL COMPOSITIONS CONTAINING THEM” (Dr. Reddy's Laboratories Ltd., priority 1997, dated 1997)

Test system: C57BL/KsJ-db/db mice
Assay: Blood sugar and triglycerides lowering activity in db/db mice (in vivo)
Conditions: for Reduction in Blood Glucose Level (%) / Triglyceride Lowering (%): oral gavage daily, male db/db mice; for Reduction in Blood Glucose Level (%): plasma glucose; for Triglyceride Lowering (%): plasma triglyceride
Text: Mutation in colonies of laboratory animals and different sensitivities to dietary regimens have made the development of animal models with non-insulin dependent diabetes associated with obesity and insulin resistance possible. Genetic models such as db/db and ob/ob (See Diabetes. (1982) 31(1): 1-6) in mice and fa/fa and zucker rats have been developed by the various laboratories for understanding the pathophysiology of disease and testing the efficacy of new antidiabetic compounds (Diabetes, (1983)32: 830-838; Annu. Rep. Sankyo Res. Lab. (1994). 46: 1-57). The homozygous animals, C57 BL/KsJ-db/db mice developed by Jackson Laboratory, US, are obese, hyperglycemic, hyperinsulinemic and insulin resistant (J. Clin. Invest., (1990) 85: 962-967), whereas heterozygous are lean and normoglycemic. In db/db model mouse progressively develops insulinopenia with age, a feature commonly observed in late stages of human type II diabetes when blood sugar levels are insufficiently controlled. The state of pancreas and its course vary according to the models. Since this model resembles that of type II diabetes mellitus, the compounds of the present invention were tested for blood sugar and triglycerides lowering activities.
Male C57BL/KsJ-db/db mice of 8 to 14 weeks age, having body weight range of 35 to 60 grams, procured from the Jackson Laboratory, USA, were used in the experiment. The mice were provided with standard feed (National Institute of Nutrition, Hyderabad, India) and acidified water, ad libitum. The animals having more than 300 mg/dl blood sugar were used for testing. The number of animals in each group was 4.
The random blood sugar ad triglyceride levels were measured by collecting blood (100 µl) through orbital sinus, using heparinized capillary in tubes containing EDTA which was centrifuged to obtain plasma. The plasma glucose and triglyceride levels were measured through spectrometrically, by glucose oxidase and glycerol-3-PO4 oxidase/peroxidase enzyme (Dr. Reddy's Lab. Diagnostic Division Kits, Hyderabad, India) methods respectively. On 6th day the blood samples were collected one hour after administration of test compounds/vehicle for assessing the biological activity.
Test compounds were suspended on 0.25 % carboxymethyl cellulose and administered to test group at a dose of 30 mg to 200 mg/kg through oral gavage daily for 6 to 9 days. The control group received vehicle (dose 10 ml/kg).
The blood sugar and triglycerides lowering activities of the test compound was calculated according to the formula: Blood sugar / triglycerides lowering activity (%) = 1 -(DT/DC)/(TC/ZC)X 100 [formula] • ZC = Zero day control group value • DC = Zero day treated group value • TC = Control group value on test day • DT = Treated group value on the test day

[1] = dose 200 mg/kg, treated for nine days

O=C1NC(=O)C(=Cc2ccc(OC3CCN(C(=O)OCc4ccccc4)CC3)cc2)S1 [Example 1, 5-[4-[1(Benzyloxycarbonyl)piperidin-4-yloxy]phenylmethylene]thiazolidine-2,4-dione]
Reduction in Blood Glucose Level (%) (dose 30 mg/kg): 47%
Reduction in Blood Glucose Level (%) (dose 100 mg/kg): 59%
Triglyceride Lowering (%) (dose 100 mg/kg): 29%
Reduction in Blood Glucose Level (%) [1]: 62%
Triglyceride Lowering (%) [1]: 70%

O=C1NC(=O)C(=Cc2ccc(OCC3CCN(C(=O)OCc4ccccc4)CC3)cc2)S1 [Example 3, 5-[4-[1-(Benzyloxycarbonyl)piperidin-4-ylmethoxy]phenylmethylene] thiazolidine-2,4-dione]
Reduction in Blood Glucose Level (%) (dose 100 mg/kg): 35%
Triglyceride Lowering (%) (dose 100 mg/kg): 56%

O=C1NC(=O)C(=Cc2ccc(OC[C@@H]3CCCN3C(=O)OCc3ccccc3)cc2)S1 [Example 5, 5-[4-[1-(Benzyloxycarbonyl)-(2S)-pyrrolidin-2-ylmethoxy]phenylmethylene]thiazolidine-2,4-dione]
Reduction in Blood Glucose Level (%) (dose 30 mg/kg): 30%
Triglyceride Lowering (%) (dose 30 mg/kg): 5%

O=C1NC(=O)C(=Cc2ccc(OC3CCN(C(=O)NCc4ccccc4)CC3)cc2)S1 [Example 10, 5-[4-[1-(Benzylaminocarbonyl)piperidin-4-yloxy]phenylmethylene]thiazolidine-2,4-dione]
Reduction in Blood Glucose Level (%) (dose 30 mg/kg): 37%
Triglyceride Lowering (%) (dose 30 mg/kg): 6%

Cc1c(C)c2c(c(C)c1O)CCC(C)(COc1ccc(CC3SC(=O)NC3=O)cc1)O2 (stereo not drawn) [Troglitazone, reference compound]
reduction in random blood sugar level (100 mg/kg, daily dose, on 6th day, standard drug, db/db mice): 28%
